Values quoted from earlier work in patent publication US7196076B2, “Androgen receptor modulators and methods of use thereof” (Merck & Co., Inc., priority 2001, dated 2007).
Where a name gives a salt, the structure may show the parent alone.

Assays:
[1] = after 7 years of treatment
[2] = median of 22 months of treatment

| Molecule | increase in spinal BMD [1] [%] | reduction in nonvertebral fractures [2] [%] | reduction in spine fractures [2] [%] |
| --- | --- | --- | --- |
| NCCCC(O)(P(=O)(O)O)P(=O)(O)O [alendronate, 4-amino-1-hydroxybutylidene-1,1-bisphosphonic acid monosodium salt, trihydrate] | 11 |  |  |
| hPTH(1–34): human parathyroid hormone 1–34 fragment (SVSEIQLMHNLGKHLNSMERVEWLRKKLQDVHNF; Parathyroid hormone; UniProt P01270 32-65, looked up, fragment) |  | 54 | ≥ 65 |
